The results in this text go back to ChEMBL document CHEMBL3853304, “Synthesis and biological screening for cytotoxic activity of N-substituted indolines and morpholines” (Eur J Med Chem, 2016).

Data set [1] has as its system U2OS. As to the kind of experiment: (§1) Cytotoxicity against human U2OS cells assessed as cell death at 100 uM after 24 hrs by trypan blue exclusion assay. Type of data set: functional.
Data set [2] can be described thus: as §1. Type of data set: functional.
In data set [3] the test system is U2OS. As to the kind of experiment: (§2) Cytotoxicity against human U2OS cells assessed as reduction in cell viability after 24 hrs by trypan blue exclusion assay. Type of data set: functional, cell-based.
The test system of data set [4] is U2OS. The data set can be described thus: Inhibition of cell migration in human U2OS cells at IC50 measured after 10 hrs by scratch migration assay. Type of data set: functional.
In data set [5] the test system is U2OS. As to the kind of experiment: Induction of apoptosis in human U2OS cells assessed as necrotic cells at IC50 after 48 hrs by propidium iodide based epifluorescence microscopic analysis (reference value: 3 %). Type of data set: functional.
Data set [6] has as its system U2OS. The data set can be described thus: Induction of apoptosis in human U2OS cells assessed as apoptotic cells at IC50 after 48 hrs by propidium iodide based epifluorescence microscopic analysis (reference value: 2 %). Type of data set: functional.
The test system of data set [7] is U2OS. The data set can be described thus: Induction of apoptosis in human U2OS cells assessed as increase in intracellular mitochondrial Ca2+ levels at IC50 by ratiometric pericam-mt based fluorescence microscopic analysis. Type of data set: functional, cell-based.
For data set [8], the system named is U2OS. The data set can be described thus: Inhibition of cell migration in human U2OS cells assessed as disturbed monolayer at IC50 measured after 10 hrs by light microscopic analysis. Type of data set: functional, cell-based.
Data set [9] relates to U2OS. The data set can be described thus: Inhibition of cell migration in human U2OS cells assessed as detached adherent cells at IC50 measured after 10 hrs by light microscopic analysis. Type of data set: functional, cell-based.
The subject of data set [10] is U2OS. The data set can be described thus: Inhibition of cell migration in human U2OS cells at IC50 measured after 2 hrs by scratch migration assay. Type of data set: functional.
The nature of data set [11]: Induction of apoptosis in HEK293 cells at IC50 after 24 hrs by Alexa fluor-Annexin V/DAPI staining-based epifluorescence microscopic analysis. Type of data set: cell-based. The settings on record: human, hek293, 24 h.
The nature of data set [12]: Induction of apoptosis in HEK293 cells assessed as increase in intracellular mitochondrial Ca2+ levels at IC50 by ratiometric pericam-mt based fluorescence microscopic analysis. Type of data set: cell-based. Particulars: human.
Data set [13] relates to U2OS. As to the kind of experiment: Induction of apoptosis in human U2OS cells assessed as necrotic cells at IC50 after 24 hrs by propidium iodide based epifluorescence microscopic analysis (reference value: 3 %). Type of data set: functional.
The nature of data set [14]: as §2. Type of data set: functional, cell-based.
Data set [15] relates to U2OS. As to the kind of experiment: Induction of apoptosis in human U2OS cells assessed as apoptotic cells at IC50 after 24 hrs by propidium iodide based epifluorescence microscopic analysis (reference value: 2 %). Type of data set: functional.
The test system of data set [16] is U2OS. As to the kind of experiment: Induction of apoptosis in human U2OS cells at IC50 after 24 hrs by Alexa fluor-Annexin V/DAPI staining-based epifluorescence microscopic analysis. Type of data set: functional.
Data set [17] deals with U2OS. The data set can be described thus: Inhibition of cell migration in human U2OS cells at IC50 after 2 to 10 hrs by scratch migration assay. Type of data set: functional, cell-based.

Active and inactive are the calls of the source. No cut-off for these calls is given here.

One may read the IC50 as the concentration at which inhibition is half-maximal.

For the molecule SODIUM ORTHOVANAD, in the data set on U2OS [1], the Activity is 30%.
Turning to `Cc1ccc(C(c2ccccc2O)N2CCc3ccccc32)cc1` (stereo unspecified), the Activity in [2] is on record as 20%.
Regarding `Oc1ccccc1C(c1ccccc1)N1CCc2ccccc21` (stereo unspecified), the Activity in [2] is on record as >90%. Moreover, the outcome in the data set on U2OS [3] was Active.
Turning to `Oc1ccccc1C(c1ccc(Cl)cc1)N1CCOCC1` (stereo unspecified), the Activity in [2] worked out at 20%.
Same read-out and setting: the value for `C(=C\C(c1ccccn1)N1CCOCC1)/c1ccccc1` (stereo unspecified) was 20%.
Turning to `Cc1ccc(C(c2cc([N+](=O)[O-])ccc2O)N2CCc3ccccc32)cc1` (stereo unspecified), the entries for the “inhibition (INH)” value with U2OS [4] and in the data set with U2OS [10] were 32% and 7%, respectively. For the same molecule, the Activity with U2OS [5] is on record as 15%; with U2OS [6] it was 23%; in data set [2], >90%; in [11] it was 30%; in [12], “Toxic”; with U2OS [13], 12%. The values for the Activity result in the data set with U2OS [3], with U2OS [15] and in the data set on U2OS [16] were “Dose-dependent effect”, 17% and 43%, respectively. In addition, the outcome in the data set with U2OS [7] was Active. For the same molecule, the inhibition result in the data set with U2OS [8], in the data set on U2OS [9] and in the data set with U2OS [17] was “Active” each time. For the same molecule, in [14], the IC50 is 74 µM.
For `C=Cc1ccc(C(c2ccccc2O)N2CCOCC2)cc1` (stereo unspecified), the Activity in data set [2] stood at 20%.
On to `Oc1ccccc1C(c1ccccc1)N1CCOCC1` (stereo unspecified), for which, in [2], the Activity is recorded as 20%.
Turning to `COc1ccc(C(c2ccccc2O)N2CCOCC2)cc1` (stereo unspecified), the Activity in data set [2] amounted to 20%.
With `Oc1ccccc1C(/C=C/c1ccccc1)N1CCOCC1` (stereo unspecified), the Activity in [2] is 20%.
